This passage reports EC50 and bioavailability results from US8575135B2 (Gilead Sciences, Inc., priority 2011, dated 2013).

Data set [1] relates to NS5A chimeric genotype 1b Con1 replicon with genotype 4a ED43 strain NS5A gene. The data set can be described thus: microbe, parasite or virus in culture. The format is cell-based, HCV. The following applies: Hepatitis C virus.
Data set [2] relates to stable HCV 2a JFH-1 Rluc replicon cells (L31 present in NS5A). The data set can be described thus: microbe, parasite or virus in culture. The class given is cell-based. Conditions: Hepatitis C virus.
Data set [3] deals with NS5A chimeric genotype 2a JFH-1 replicon with genotype 2b MD2b-1 strain NS5A gene (M31 present). The data set can be described thus: microbe, parasite or virus in culture. The class given is cell-based, HCV. The following applies: Hepatitis C virus. In a few lines:
(§1)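 Con1-based 3a and 4a chimeras carried a Pi-RLuc reporter and were transiently transfected into Huh-Lunet cells; the JFH-1-based 2b chimera (RLuc-Neo) was used transiently or as stable replicon cells.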

Data set [4] concerns NS5A chimeric genotype 2a JFH-1 replicon with genotype 2a J6 strain NS5A gene (M31 present). The data set can be described thus: microbe, parasite or virus in culture. The format is cell-based, HCV. Conditions: Hepatitis C virus.
The subject of data set [5] is NS5A chimeric genotype 1b Con1 replicon with genotype 3a S52 strain NS5A gene. The data set can be described thus: microbe, parasite or virus in culture. The format is cell-based, HCV. Conditions: Hepatitis C virus. In a few lines:
as §1

Data set [6] concerns stable HCV 1a RLuc replicon cells (genotype 1a H77 replicon). Description: microbe, parasite or virus in culture. The class given is cell-based. The following applies: Hepatitis C virus.
The nature of data set [7]: IV and PO single dose pharmacokinetic studies in SD rats. The format is in vivo. Conditions: male, Sprague-Dawley, rat, plasma, IV infusion 1 mg/kg vs oral gavage 2 mg/kg, read-out: Rat % F. As to the method: IV and PO Single Dose Pharmacokinetic Studies in SD Rats: The pharmacokinetics of selected compounds was characterized in male Sprague-Dawley (SD) rats (250-300g). […] The intravenous (IV) dosing vehicle was 5% ethanol, 35% polyethylene glycol 400 (PEG 400) and 60% water pH 2.0. […] Serial blood samples (approximately 0.3 mL each) were collected from jugular vein or other suitable vein at specified time points. […] The blood samples were collected into Vacutainer™ tubes containing EDTA-K3 as the anti-coagulant and were centrifuged at approximately 4° C. to obtain plasma. The plasma samples were stored at −20° C. until analysis by LC/MS/MS. A bioanalytical method utilizing high performance liquid chromatography coupled to tandem mass spectrometry (LC/MS/MS) was developed for analysis of the selected compound in rat plasma. Detection was performed using selected reaction monitoring (SRM); […] Standard curve and quality control samples were prepared in male rat plasma and processed in the same way as the test samples to generate quantitative data. Pharmacokinetic parameters were generated using non-compartmental pharmacokinetic analysis (Phoenix WinNonlin, version 6.3). Values below the lower limit of quantification (LLOQ) were assigned a value of zero if predose and treated as missing thereafter. Area under the curve (AUC) was calculated using the linear trapezoidal rule. The oral bioavailability (% F) was determined by comparison of the area under the curve (AUC) of the compound and/or a metabolite generated in plasma following oral administration to that generated following intravenous administration.

Data set [8] concerns 1a Pi-Rluc replicon with Q30R in genotype 1a NS5A. Description: microbe, parasite or virus in culture. The format is cell-based, HCV. Conditions: Hepatitis C virus. In short, it runs like this:
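Renilla luciferase replicon assay: 1a Pi-RLuc replicon carrying NS5A Q30R, transfected transiently into cured-51 (Huh-7-derived) cells.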

Molecules are shown by their SMILES. Read-outs that look alike come from different tables or passages of the source.

As for `COC[C@H]1C[C@@H](c2nc3ccc4cc5c(cc4c3[nH]2)OCc2cc(-c3cnc([C@@H]4C[C@H](C)CN4C(=O)[C@@H](NC(=O)OC)C(C)C)[nH]3)ccc2-5)N(C(=O)[C@H](NC(=O)OC)c2ccccc2)C1` [Example MN, methyl {(2S)-1-[(2S,4S)-2-(5-{2-[(2S,4S)-1-{(2R)-2-[(methoxycarbonyl)amino]-2-phenylacetyl}-4-(methoxymethyl)pyrrolidin-2-yl]-1,11-dihydroisochromeno[4′,3′:6,7]naphtho[1,2-d]imidazol-9-yl}-1H-imidazol-2-yl)-4-methylpyrrolidin-1-yl]-3-methyl-1-oxobutan-2-yl}carbamate], the EC50 is less than 1 nM in data set [1] (read-out: 4a); 0.007 nM in data set [1] (read-out: 4a (s) (nM)); 0.024 nM in data set [1] (read-out: 4a (t) (nM)); less than 1 nM in data set [2] (read-out: 2a JFH); 0.008 nM in data set [2] (read-out: 2a JFH (nM)); less than 1 nM in data set [3] (read-out: 2b). Also, the EC50 was 0.04 nM in data set [3] (read-out: 2b (s) (nM)); 0.013 nM in data set [3] (read-out: 2b (t) (nM)); less than 1 nM in data set [4] (read-out: 2a J6); 0.071 nM in data set [4] (read-out: 2a J6 (s) (nM)); 0.017 nM in data set [4] (read-out: 2a Jb (t) (nM)); less than 1 nM in data set [5] (read-out: 3a). Further, the EC50 is 0.034 nM in data set [5] (read-out: 3a (nM)); less than 1 nM in data set [6] (read-out: 1a); 0.014 nM in data set [6] (read-out: 1a (nM)); less than 1 nM in data set [8] (read-out: 1a Q30R); 0.018 nM in data set [8] (read-out: 1a Q30R (nM)). Besides, the bioavailability in data set [7] stood at 1.5%.
Take `COC[C@H]1C[C@@H](c2nc3ccc4cc5c(cc4c3[nH]2)OCc2cc(-c3cnc([C@@H]4C[C@H](C)CN4C(=O)[C@@H](NC(=O)OC)C(C)C)[nH]3)ccc2-5)N(C(=O)[C@@H](NC(=O)OC)C(C)C)C1` [Example MO, methyl {(2S)-1-[(2S,4S)-2-(5-{2-[(2S,4S)-1-{(2S)-2-[(methoxycarbonyl)amino]-3-methylbutanoyl}-4-methoxymethylpyrrolidin-2-yl]-1,11-dihydroisochromeno[4′,3′:6,7]naphtho[1,2-d]imidazol-9-yl}-1H-imidazol-2-yl)-4-methylpyrrolidin-1-yl]-3-methyl-1-oxobutan-2-yl}carbamate]: the EC50 in data set [1] (read-out: 4a) is less than 1 nM; in data set [1] (read-out: 4a (s) (nM)), 0.018 nM; in data set [1] (read-out: 4a (t) (nM)) it was 0.022 nM; in data set [2] (read-out: 2a JFH) it was less than 1 nM; in data set [2] (read-out: 2a JFH (nM)) it was 0.007 nM; in data set [3] (read-out: 2b) it was less than 1 nM. Besides, the EC50 was 0.427 nM in data set [3] (read-out: 2b (s) (nM)); 0.137 nM in data set [3] (read-out: 2b (t) (nM)); less than 1 nM in data set [4] (read-out: 2a J6); 0.471 nM in data set [4] (read-out: 2a J6 (s) (nM)); 0.089 nM in data set [4] (read-out: 2a Jb (t) (nM)); less than 1 nM in data set [5] (read-out: 3a). Also, the EC50 in data set [5] (read-out: 3a (nM)) is 0.051 nM; in data set [6] (read-out: 1a), less than 1 nM; in data set [6] (read-out: 1a (nM)), 0.013 nM; in data set [8] (read-out: 1a Q30R), less than 1 nM; in data set [8] (read-out: 1a Q30R (nM)), 0.052 nM. For the same molecule, the bioavailability in data set [7] turned out to be 7.46%.
As for `COC[C@H]1C[C@@H](c2nc3ccc4cc5c(cc4c3[nH]2)OCc2cc(-c3cnc([C@@H]4CC[C@H](C)N4C(=O)[C@@H](NC(=O)OC)C(C)C)[nH]3)ccc2-5)N(C(=O)[C@@H](NC(=O)OC)C(C)C)C1` [Example MP, methyl{(2S)-1-[(2S,5S)-2-(5-{2-[(2S,4S)-1-{(2S)-2-[(methoxycarbonyl)amino]-3-methylbutanoyl}-4-methoxymethylpyrrolidin-2-yl]-1,11-dihydroisochromeno[4′,3′:6,7]naphtho[1,2-d]imidazol-9-yl}-1H-imidazol-2-yl)-5-methylpyrrolidin-1-yl]-3-methyl-1-oxobutan-2-yl}carbamate], the EC50 is less than 1 nM in data set [1] (read-out: 4a); 0.013 nM in data set [1] (read-out: 4a (s) (nM)); 0.015 nM in data set [1] (read-out: 4a (t) (nM)); less than 1 nM in data set [2] (read-out: 2a JFH); 0.004 nM in data set [2] (read-out: 2a JFH (nM)); less than 1 nM in data set [3] (read-out: 2b). In addition, the EC50 was 0.184 nM in data set [3] (read-out: 2b (s) (nM)); 0.032 nM in data set [3] (read-out: 2b (t) (nM)); less than 1 nM in data set [4] (read-out: 2a J6); 0.336 nM in data set [4] (read-out: 2a J6 (s) (nM)); 0.039 nM in data set [4] (read-out: 2a Jb (t) (nM)); less than 1 nM in data set [5] (read-out: 3a). The EC50 in data set [5] (read-out: 3a (nM)) was 0.015 nM; in data set [6] (read-out: 1a), less than 1 nM; in data set [6] (read-out: 1a (nM)), 0.006 nM; in data set [8] (read-out: 1a Q30R), less than 1 nM; in data set [8] (read-out: 1a Q30R (nM)), 0.031 nM. Further, the bioavailability in data set [7] came out at 24.2%.
Take `COC(=O)N[C@H](C(=O)N1[C@@H](C)CC[C@H]1c1ncc(-c2ccc3c(c2)COc2cc4c(ccc5nc([C@@H]6CC[C@H](C)N6C(=O)[C@@H](NC(=O)OC)[C@@H](C)OC)[nH]c54)cc2-3)[nH]1)[C@@H](C)OC` [Example NI, Methyl [(2S,3R)-3-methoxy-1-{(2S,5S)-2-[9-(2-{(2S,5S)-1-[N-(methoxycarbonyl)-O-methyl-L-threonyl]-5-methylpyrrolidin-2-yl}-1H-imidazol-5-yl)-1,11-dihydroisochromeno[4′,3′:6,7]naphtho[1,2-d]imidazol-2-yl]-5-methylpyrrolidin-1-yl}-1-oxobutan-2-yl]carbamate]: the EC50 was less than 1 nM in data set [1] (read-out: 4a); 0.02 nM in data set [1] (read-out: 4a (t) (nM)); less than 1 nM in data set [2] (read-out: 2a JFH); 0.007 nM in data set [2] (read-out: 2a JFH (nM)); less than 1 nM in data set [3] (read-out: 2b); 0.054 nM in data set [3] (read-out: 2b (s) (nM)). For the same molecule, the EC50 is 0.019 nM in data set [3] (read-out: 2b (t) (nM)); less than 1 nM in data set [4] (read-out: 2a J6); 0.169 nM in data set [4] (read-out: 2a J6 (s) (nM)); 0.026 nM in data set [4] (read-out: 2a Jb (t) (nM)); less than 1 nM in data set [5] (read-out: 3a); 0.022 nM in data set [5] (read-out: 3a (nM)). Besides, the EC50 in data set [6] (read-out: 1a) is less than 1 nM; in data set [6] (read-out: 1a (nM)), 0.015 nM; in data set [8] (read-out: 1a Q30R), less than 1 nM; in data set [8] (read-out: 1a Q30R (nM)), 0.059 nM. Moreover, the bioavailability in data set [7] amounted to 24.1%.
As to `COC[C@H]1C[C@@H](c2nc3c([nH]2)-c2cc4c(cc2CC3)-c2ccc(-c3cnc([C@@H]5CC[C@H](C)N5C(=O)[C@@H](NC(=O)OC)C(C)C)[nH]3)cc2CO4)N(C(=O)[C@H](NC(=O)OC)c2ccccc2)C1` [Example OP, Methyl {(1R)-2-[(2S,4S)-2-(9-{2-[(2S,5S)-1-{(2S)-2-[(methoxycarbonyl)amino]-3-methylbutanoyl}-5-methylpyrrolidin-2-yl]-1H-imidazol-5-yl}-1,4,5,11-tetrahydroisochromeno[4′,3′:6,7]naphtho[1,2-d]imidazol-2-yl)-4-(methoxymethyl)pyrrolidin-1-yl]-2-oxo-1-phenylethyl}carbamate], the EC50 in data set [2] (read-out: 2a JFH) was less than 1 nM; in data set [2] (read-out: 2a JFH (nM)), 0.008 nM; in data set [3] (read-out: 2b) it was less than 1 nM; in data set [3] (read-out: 2b (s) (nM)), 0.007 nM; in data set [3] (read-out: 2b (t) (nM)), 0.011 nM; in data set [4] (read-out: 2a J6), less than 1 nM. Also, the EC50 was 0.018 nM in data set [4] (read-out: 2a Jb (t) (nM)); less than 1 nM in data set [5] (read-out: 3a); 0.027 nM in data set [5] (read-out: 3a (nM)); less than 1 nM in data set [6] (read-out: 1a); 0.013 nM in data set [6] (read-out: 1a (nM)); less than 1 nM in data set [8] (read-out: 1a Q30R). For the same molecule, the EC50 in data set [8] (read-out: 1a Q30R (nM)) came to 0.026 nM. Moreover, in data set [7], the bioavailability is 15.1%.
`CC[C@H](C)[C@H](NC(=O)OC)C(=O)N1[C@@H](C)CC[C@H]1c1ncc(-c2ccc3c(c2)COc2cc4c(ccc5nc([C@@H]6C[C@H](COC)CN6C(=O)[C@H](NC(=O)OC)c6ccccc6)[nH]c54)cc2-3)[nH]1` [Example OW]: the EC50 in data set [2] (read-out: 2a JFH) is less than 1 nM; in data set [2] (read-out: 2a JFH (nM)), 0.006 nM; in data set [3] (read-out: 2b), less than 1 nM; in data set [3] (read-out: 2b (t) (nM)) it was 0.008 nM; in data set [4] (read-out: 2a J6) it was less than 1 nM; in data set [4] (read-out: 2a Jb (t) (nM)), 0.009 nM. In addition, the EC50 was less than 1 nM in data set [5] (read-out: 3a); 0.013 nM in data set [5] (read-out: 3a (nM)); less than 1 nM in data set [6] (read-out: 1a); 0.009 nM in data set [6] (read-out: 1a (nM)); less than 1 nM in data set [8] (read-out: 1a Q30R); 0.019 nM in data set [8] (read-out: 1a Q30R (nM)). Besides, the bioavailability in data set [7] is 13.3%.
